Test results published in patent publication US20110039898A1, “METHOD FOR SCAVENGING FREE RADICALS AND INHIBITING TYROSINASE AND MELANIN” (priority 2009, published 2011).

Legend:
[1] = test system: tyrosinase activity of B16-F10 cells; assay: Tyrosinase activity assay in situ; type: cell-based; conditions: three days
Procedure: Tyrosinase Activity Assay In Situ
B16-F10 cells (1×10^5) were placed on a 60 mm culture dish. After 12 hours, an adherent monolayer was formed on the bottom of the culture dish. After removal of the used culture medium, a fresh culture medium was added. A sample solution with various concentrations and/or 50 nM melanocytes stimulating hormone (MSH) were then added and cultivated at 37° C. for three days. After removal of the upper clean solution, the cells were washed two times using a PBS. After the cells were scraped away, protein was extracted and quantitated. One hundred μl of a phosphate buffer (250 mM, pH 6.5), 50 μl of a L-DOPA (10 mM) and 50 μl of a cell extract were sequentially added to a 96-well plate, uniformly mixed and reacted in a 37° C. culture box. The absorption of the result was then measured by an ELISA reader (475 nm).

melanin of B16-F10 cells = assay: Melanin content assay in situ; type: cell-based; conditions: for inhibition of melanin of B16-F10 cells: three days, nicotinyl hydroxamic acid 10, 20, 40, 60 μM
Procedure: Melanin Content Assay In Situ
B16-F10 cells (1×10^5) were placed on a 60 mm culture dish. The nicotinyl hydroxamic acid and the N-methyl nicotinic acid hydroxamate iodide with various concentrations were respectively added and cultivated for three days in a culture box. After removal of the upper clean solution, the cells were washed two times using a PBS. The melanin was dissolved by 1N NaOH (90° C., 30 minutes). The melanin content was then measured (405 nm).

human melanocytes = assay: Cell viability assay (MTT), human melanocytes; type: cell-based; conditions: 24 hours
Procedure: (§1) The culture medium was removed from the culture dish filled with cells. The cells were washed using 10 ml of a PBS. The number of the cells was counted by a blood cell counter and diluted to a proper cell concentration. 500 µl/well of the result was added to a 24-well culture plate and cultivated in a 37° C. culture box with 5% CO2 and mist until the cells were stuck on the bottom of the culture dish. After removal of the used culture medium, a fresh drug-containing culture medium with various concentrations was added (the drug was directly added when cells were suspended) and cultivated for 24 hours in a 37° C. culture box with 5% CO2 and mist. After removal of the upper clean solution, the cells were washed two times using a PBS. An MTT solution (500 μg/ml) prepared from the medium was then added to the well and reacted for 4-6 hours in a 37° C. culture box. After removal of the upper clean solution, 100 μl of a DMSO was added until a formazan crystal was dissolved. The absorption of the result was then measured by an ELISA reader (600 nm).

melanoma cells (B16-F10) = assay: Cell viability assay (MTT), melanoma cells; type: cell-based; conditions: 24 hours; for cell toxicity to melanoma cells (B16-F10): under effective concentration to inhibit melanin
Procedure: as §1

[2] = test system: polyphenol oxidase in the apple juice; assay: Polyphenol oxidase inhibition assay in apple juice; type: biochemical; conditions: 5 to 200 μM; absorbance at 420 nm within two hours
Procedure: Polyphenol Oxidase Inhibition Assay
Apples were purchased from local supermarkets. 100 g of apples were peeled, cored and sliced prior to juicing in a blender. The preparation was with 100 ml distilled water filtered through swab and collected by centrifugation 12,000 rpm for 10 min at 4° C. The apple juice obtained was immediately collected 200 μl in a 96 well microplate and mixed nicotinyl hydroxamic acid and N-methyl nicotinic acid hydroxamate iodide (5-200 μM).

[3] = test system: melanin content in B16-F10 cells; assay: Melanin content in B16-F10 cells with ERK and AKT pathway inhibitors; type: cell-based
Description: The mechanism of inhibition of melanogenesis by nicotinyl hydroxamic acid in B16-F10 cells is further described as follows. ERK and AKT/[…] pathways participate in melanogenesis. PD98059, a MEK selective inhibitor, inhibits the activity of ERK (ERK is activated by MEK). LY294002, a phosphatidylinositol 3-kinase (PI3K) inhibitor, blocks the AKT/PKB pathway. The two inhibitors are used to determine the participation of nicotinyl hydroxamic acid in the ERK and AKT/PKA pathways. […] However, when nicotinyl hydroxamic acid is simultaneously added, the inhibition of melanin thereby is reduced by PD98059 and LY294002.

p-AKT = assay: Western blot of B16-F10 cells: p-AKT; type: cell-based
Description: (§2) Additionally, according to the analytical results obtained using the western blot method, it was shown that the expression of p-ERK, p-MEK and p-AKT is increased as the concentration of nicotinyl hydroxamic acid is increased. Thus, in addition to inhibition of tyrosinase and adjustment of MITF, nicotinyl hydroxamic acid also reduces the melanin content in cells through ERK and AKT/PKB pathways.

TRP-1 = assay: Western blot of B16-F10 cells: TRP-1; type: cell-based; conditions: B16-F10 cells treated 24 hours
Procedure: (§3) After using nicotinyl hydroxamic acid to treat B16-F10 cells for 24 hours, proteins are extracted and analyzed using the western blot method. The contents of tyrosinase and TRP-1 are reduced as the concentration of nicotinyl hydroxamic acid is increased.

MITF = assay: Western blot of B16-F10 cells: MITF; type: cell-based
Procedure: as §3
Microphthalmia-associated transcription factor (MITF) is a transcription factor controlling tyrosinase and TRP-1 expression in cells, with a helix-loop-helix leucine zipper structure, capable of regulation of melanogenesis and survival and proliferation of melanocytes.

p-MEK = assay: Western blot of B16-F10 cells: p-MEK; type: cell-based
Description: as §2

tyrosinase = assay: Western blot of B16-F10 cells: tyrosinase; type: cell-based; conditions: B16-F10 cells treated 24 hours
Procedure: as §3

TRP-2 = assay: Western blot of B16-F10 cells: TRP-2; type: cell-based; conditions: B16-F10 cells treated 24 hours
p-ERK = assay: Western blot of B16-F10 cells: p-ERK; type: cell-based
Description: as §2

[4] = concentration increased to 5 mM

SMILES	tyrosinase activity of B16-F10 cells as concentration was increased ([1]; MSH added (50 nM))	tyrosinase activity of B16-F10 cells as concentration was increased ([1]; no MSH added)	inhibition of melanin of B16-F10 cells (melanin of B16-F10 cells; MSH added)	inhibition of melanin of B16-F10 cells (melanin of B16-F10 cells; MSH not added)	viability of human melanocytes (human melanocytes; [4])	viability of B16-F10 melanoma cells (melanoma cells (B16-F10); [4])	cell toxicity to melanoma cells (B16-F10) (melanoma cells (B16-F10))	inhibition of polyphenol oxidase in the apple juice [2]	effect on melanin content in cells ([3]; inhibitor added)	concentration added to achieve the same inhibition effect on melanin content (melanin of B16-F10 cells; MSH added)	concentration added to achieve the same inhibition effect on melanin content (melanin of B16-F10 cells; no MSH added)	expression of p-AKT as concentration is increased (p-AKT)	viability of human melanocytes (human melanocytes; concentration increased to 1 mM)	content of TRP-1 as concentration is increased (TRP-1)	content of MITF as concentration is increased (MITF)	inhibition of melanin when PD98059 and LY294002 are simultaneously added ([3]; with PD98059 and LY294002)	expression of p-MEK as concentration is increased (p-MEK)	content of tyrosinase as concentration is increased (tyrosinase)	content of TRP-2 versus concentration (TRP-2)	expression of p-ERK as concentration is increased (p-ERK)
C[n+]1cccc(C(=O)NO)c1 [N-methyl nicotinic acid hydroxamate iodide]	decreased	decreased	achieved the same effects	achieved the same effects	still alive	still alive	low cell toxicity	effectively inhibited												
COc1cccc(-c2cc(=O)c3ccccc3o2)c1N [PD98059, reference compound]									increases melanin content											
O=c1cc(CO)occ1O [kojic acid, reference compound]										1.5 mM	1.5 mM									
O=C(NO)c1cccnc1 [nicotinyl hydroxamic acid]	decreased	decreased	effectively inhibited	effectively inhibited			low cell toxicity	effectively inhibited		0.04 mM	0.06 mM	increased	still alive	reduced	reduced	reduced	increased	reduced	irrelevant to the concentration	increased
